From patent publication US10174044B2, “Fused pyridines as kinase inhibitors” (BRISTOL-MYERS SQUIBB COMPANY, priority 2015, dated 2019)

Molecular target: GST-Xa-hAAK1 (Homo sapiens (Human), UniProt Q2M2I8)
Assay: AAK1 Kinase Assay
Format: biochemical
Details: bacterially expressed GST-Xa-hAAK1 3.5 nM; ATP 22 μM; fluoresceinated peptide substrate 1.5 μM; 3 hours at room temperature
Method: The assays were performed in U-bottom 384-well plates. […] The reactions were initiated by the combination of bacterially expressed, GST-Xa-hAAK1 with substrates and test compounds. The reactions were incubated at room temperature for 3 hours and terminated by adding 60 μl of 35 mM EDTA buffer to each sample. The reactions were analyzed on the Caliper LabChip 3000 (Caliper, Hopkinton, Mass.) by electrophoretic separation of the fluorescent substrate and phosphorylated product. […] Compounds were dissolved at 10 mM in dimethylsulfoxide (DMSO) and evaluated at eleven concentrations. IC50 values were derived by non-linear regression analysis.

Chain of GST-Xa-hAAK1 (Q2M2I8 whole entry): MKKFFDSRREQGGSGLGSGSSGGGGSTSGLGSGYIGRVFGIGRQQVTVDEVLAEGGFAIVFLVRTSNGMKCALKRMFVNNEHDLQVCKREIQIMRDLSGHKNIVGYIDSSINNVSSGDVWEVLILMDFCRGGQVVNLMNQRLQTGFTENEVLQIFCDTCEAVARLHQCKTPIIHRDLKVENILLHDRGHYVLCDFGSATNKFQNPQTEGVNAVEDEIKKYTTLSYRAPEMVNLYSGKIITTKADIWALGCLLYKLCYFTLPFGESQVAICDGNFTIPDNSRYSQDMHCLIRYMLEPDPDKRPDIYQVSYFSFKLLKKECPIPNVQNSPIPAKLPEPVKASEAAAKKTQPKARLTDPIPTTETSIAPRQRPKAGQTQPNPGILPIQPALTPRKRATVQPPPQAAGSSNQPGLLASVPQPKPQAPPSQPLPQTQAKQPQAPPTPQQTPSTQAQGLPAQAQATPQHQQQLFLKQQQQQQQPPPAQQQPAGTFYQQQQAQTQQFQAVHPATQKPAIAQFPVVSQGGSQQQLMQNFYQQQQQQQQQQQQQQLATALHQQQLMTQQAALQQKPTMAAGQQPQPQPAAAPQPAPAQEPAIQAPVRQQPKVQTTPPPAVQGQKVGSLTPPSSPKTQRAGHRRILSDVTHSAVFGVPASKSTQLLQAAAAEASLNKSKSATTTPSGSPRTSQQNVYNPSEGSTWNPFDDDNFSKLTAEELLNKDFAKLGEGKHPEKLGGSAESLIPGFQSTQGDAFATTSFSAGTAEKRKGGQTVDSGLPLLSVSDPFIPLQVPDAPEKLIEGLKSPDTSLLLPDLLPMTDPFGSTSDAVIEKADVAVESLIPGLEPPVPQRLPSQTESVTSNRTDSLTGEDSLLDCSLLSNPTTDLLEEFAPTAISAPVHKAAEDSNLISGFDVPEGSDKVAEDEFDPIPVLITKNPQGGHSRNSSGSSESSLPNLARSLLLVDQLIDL

IC50 [µM] | Compound
0.031 | CC(C)CC(C)(N)COc1ccc2c(c1)c(=O)n(C)c1cnccc21 (centres unmarked) [Example 7, 8-((2-amino-2,4-dimethylpentyl)oxy)-5-methylbenzo[c][1,7]naphthyridin-6(5H)-one]
0.013 | CC(C)C[C@H](N)COc1ccc2c(c1)COc1cnccc1-2 [Example 29, (S)-1-((6H-isochromeno[3,4-c]pyridin-8-yl)oxy)-4-methylpentan-2-amine]
0.00062 | CCOC(=O)Nc1cc2c(cn1)OCc1cc(OC[C@@](C)(N)CC(C)C)ccc1-2 [Example 41, (S)-ethyl (8-((2-amino-2,4-dimethylpentyl)oxy)-6H-isochromeno[3,4-c]pyridin-2-yl)carbamate]
0.00081 | COC(=O)Nc1cc2c(cn1)OCc1c-2ccc(OC[C@@](C)(N)CC(C)C)c1Cl [Example 62, (S)-methyl (8-((2-amino-2,4-dimethylpentyl)oxy)-7-chloro-6H-isochromeno[3,4-c]pyridin-2-yl)carbamate]
0.00091 | COC(=O)Nc1cc2c(cn1)OCc1c-2ccc(OC[C@@](C)(N)CC(C)C)c1F [Example 45, (S)-methyl (8-((2-amino-2,4-dimethylpentyl)oxy)-7-fluoro-6H-isochromeno[3,4-c]pyridin-2-yl)carbamate]
0.611 | Cc1nccc2c1[nH]c(=O)c1cc(OC[C@@](C)(N)CC(C)C)c(Cl)cc12 [Example 28, (S)-8-((2-amino-2,4-dimethylpentyl)oxy)-9-chloro-4-methylbenzo[c][1,7]naphthyridin-6(5H)-one]
0.235 | CC(C)C[C@H](N)COc1ccc2c(c1)C(C)(C)Oc1cnccc1-2 [Example 31, (S)-1-((6,6-dimethyl-6H-isochromeno[3,4-c]pyridin-8-yl)oxy)-4-methylpentan-2-amine]
0.0037 | Cc1cc2c(cc1OCC(N)CCC(F)(F)F)c(=O)n(C)c1cnccc21 (centres unmarked) [Example 6, 8-((2-amino-5,5,5-trifluoropentyl)oxy)-5,9-dimethylbenzo[c][1,7]naphthyridin-6(5H)-one]
0.088 | CC(C)CC(C)(N)COc1ccc2c(c1)COc1cnc(NCC(F)(F)F)cc1-2 (centres unmarked) [Example 42, 8-((2-amino-2,4-dimethylpentyl)oxy)-N-(2,2,2-trifluoroethyl)-6H-isochromeno[3,4-c]pyridin-2-amine]
0.0044 | CC(C)C[C@](C)(N)COc1ccc2c(c1)COc1cnc(N)cc1-2 [Example 53, (S)-8-((2-amino-2,4-dimethylpentyl)oxy)-6H-isochromeno[3,4-c]pyridin-2-amine]
0.121 | Cc1cc2c(cn1)OCc1cc(OC[C@@](C)(N)CC(C)C)ccc1-2 [Example 51, (S)-2,4-dimethyl-1-((2-methyl-6H-isochromeno[3,4-c]pyridin-8-yl)oxy)pentan-2-amine]
0.045 | CCOC(=O)Nc1nc(Cl)c2c(c1Cl)-c1ccc(OC[C@@](C)(N)CC(C)C)cc1CO2 [Example 46, (S)-ethyl (8-((2-amino-2,4-dimethylpentyl)oxy)-1,4-dichloro-6H-isochromeno[3,4-c]pyridin-2-yl)carbamate]
0.0021 | CC(=O)Nc1cc2c(cn1)OCc1cc(OC[C@@H](N)CC(C)C)ccc1-2 [Example 33, (S)—N-(8-((2-amino-4-methylpentyl)oxy)-6H-isochromeno[3,4-c]pyridin-2-yl)acetamide]
0.003 | Cc1cc2c3ccc(OC[C@@](C)(N)CC(C)C)c(Cl)c3c(=O)n(C)c2cn1 [Example 18, (S)-8-((2-amino-2,4-dimethylpentyl)oxy)-7-chloro-2,5-dimethylbenzo[c][1,7]naphthyridin-6(5H)-one]
0.046 | [2H]C([2H])([2H])n1c(=O)c2cc(OC[C@@](C)(N)CC(C)C)ccc2c2ccnc(C)c21 [Example 23, (S)-8-((2-amino-2,4-dimethylpentyl)oxy)-4-methyl-5-(trideuteromethyl)benzo[c][1,7]naphthyridin-6(5H)-one]
0.00074 | CC(C)C[C@](C)(N)COc1ccc2c(c1)COc1c-2ccnc1N [Example 60, (S)-8-((2-amino-2,4-dimethylpentyl)oxy)-6H-isochromeno[3,4-c]pyridin-4-amine]
0.0032 | Cc1cc2c(cc1OC[C@@H](N)CC(C)C)COc1cnccc1-2 [Example 32, (S)-4-methyl-1-((9-methyl-6H-isochromeno[3,4-c]pyridin-8-yl)oxy)pentan-2-amine]
0.0054 | Cc1cc2c(cc1OC[C@@](C)(N)CC(C)C)c(=O)n(C)c1c(C)nccc21 [Example 26, (S)-8-((2-amino-2,4-dimethylpentyl)oxy)-4,5,9-trimethylbenzo[c][1,7]naphthyridin-6(5H)-one]
0.049 | Cc1nccc2c3ccc(OCC(C)(N)CC(C)C)cc3c(=O)n(C)c12 (centres unmarked) [Example 9, 8-((2-amino-2,4-dimethylpentyl)oxy)-4,5-dimethylbenzo[c][1,7]naphthyridin-6(5H)-one]

IC50 [µM] | Compound
0.0081 | Cc1cc2c3ccc(OC[C@@](C)(N)CC(C)C)cc3c(=O)n(C)c2cn1 [Example 14, (S)-8-((2-amino-2,4-dimethylpentyl)oxy)-2,5-dimethylbenzo[c][1,7]naphthyridin-6(5H)-one]
0.0022 | CC(C)C[C@](C)(N)COc1ccc2c(c1)COc1c-2ccnc1Cl [Example 52, (S)-1-((4-chloro-6H-isochromeno[3,4-c]pyridin-8-yl)oxy)-2,4-dimethylpentan-2-amine]
0.017 | CC(C)C[C@H](N)COc1ccc2c(c1)C(C)Oc1cnccc1-2 (stereo partly drawn) [Example 30, (2S)-4-methyl-1-((6-methyl-6H-isochromeno[3,4-c]pyridin-8-yl)oxy)pentan-2-amine]
0.024 | CCn1c(=O)c2cc(OC[C@@](C)(N)CC(C)C)c(Cl)cc2c2ccnc(C)c21 [Example 16, (S)-8-((2-amino-2,4-dimethylpentyl)oxy)-9-chloro-5-ethyl-4-methylbenzo[c][1,7]naphthyridin-6(5H)-one]
0.0095 | CC(C)C[C@H](N)COc1ccc2c(c1)c(=O)[nH]c1cnccc12 [Example 1, (S)-8-((2-amino-4-methylpentyl)oxy)benzo[c][1,7]naphthyridin-6(5H)-one]
0.026 | CCOC(=O)Nc1ncc2c(c1Cl)-c1ccc(OC[C@@](C)(N)CC(C)C)cc1CO2 [Example 47, (S)-ethyl (8-((2-amino-2,4-dimethylpentyl)oxy)-1-chloro-6H-isochromeno[3,4-c]pyridin-2-yl)carbamate]
0.037 | CC(C)C[C@H](N)COc1ccc2c(c1)c(=O)n(C)c1cnccc21 [Example 2, (S)-8-((2-amino-4-methylpentyl)oxy)-5-methylbenzo[c][1,7]naphthyridin-6(5H)-one]
0.00041 | CC(C)C[C@](C)(N)COc1ccc2c(c1Cl)COc1cnc(N)cc1-2 [Example 61, (S)-8-((2-amino-2,4-dimethylpentyl)oxy)-7-chloro-6H-isochromeno[3,4-c]pyridin-2-amine]
0.092 | Cc1nccc2c3ccc(OC[C@](C)(N)CC(C)C)cc3c(=O)n(C)c12 [Example 11, (R)-8-((2-amino-2,4-dimethylpentyl)oxy)-4,5-dimethylbenzo[c][1,7]naphthyridin-6(5H)-one]
0.035 | Cc1nccc2c3ccc(OC[C@@](C)(N)CC(C)C)cc3c(=O)n(C)c12 [Example 10, (S)-8-((2-amino-2,4-dimethylpentyl)oxy)-4,5-dimethylbenzo[c][1,7]naphthyridin-6(5H)-one]
0.013 | CC(C)C[C@](C)(N)COc1ccc2c(c1)COc1cnc(C(F)F)cc1-2 [Example 48, (S)-1-((2-(difluoromethyl)-6H-isochromeno[3,4-c]pyridin-8-yl)oxy)-2,4-dimethylpentan-2-amine]
0.0024 | CC(=O)Nc1cc2c(cn1)OCc1cc(OC[C@@](C)(N)CC(C)C)ccc1-2 [Example 37, (S)—N-(8-((2-amino-2,4-dimethylpentyl)oxy)-6H-isochromeno[3,4-c]pyridin-2-yl)acetamide]
0.0038 | COC(=O)Nc1cc2c(cn1)OCc1cc(OC[C@@H](N)CC(C)C)ccc1-2 [Example 34, (S)-methyl (8-((2-amino-4-methylpentyl)oxy)-6H-isochromeno[3,4-c]pyridin-2-yl)carbamate]
0.011 | Cc1nccc2c1OCc1cc(OC[C@@](C)(N)CC(C)C)ccc1-2 [Example 50, (S)-2,4-dimethyl-1-((4-methyl-6H-isochromeno[3,4-c]pyridin-8-yl)oxy)pentan-2-amine]
0.014 | Cc1cc2c(cc1OC[C@@H](N)CC(C)C)c(=O)n(C)c1c(C)nccc21 [Example 4, (S)-8-((2-amino-4-methylpentyl)oxy)-4,5,9-trimethylbenzo[c][1,7]naphthyridin-6(5H)-one]
0.0032 | Cc1cc2c(cc1OC[C@@H](N)CC(C)C)c(=O)n(C)c1cnccc21 [Example 3, (S)-8-((2-amino-4-methylpentyl)oxy)-5,9-dimethylbenzo[c][1,7]naphthyridin-6(5H)-one]
0.011 | CC(C)C[C@H](N)COc1ccc2c(c1)COc1cnc(N)cc1-2 [Example 35, (S)-8-((2-amino-4-methylpentyl)oxy)-6H-isochromeno[3,4-c]pyridin-2-amine]
0.227 | Cc1nccc2c3cc(Cl)c(OC[C@@](C)(N)CC(C)C)cc3c(=O)n(C(C)C)c12 [Example 25, (S)-8-((2-amino-2,4-dimethylpentyl)oxy)-9-chloro-5-isopropyl-4-methylbenzo[c][1,7]naphthyridin-6(5H)-one]
0.056 | CC(C)C[C@](C)(N)COc1ccc2c(c1)COc1cnc(NCC(F)(F)F)cc1-2 [Example 43, (S)-8-((2-amino-2,4-dimethylpentyl)oxy)-N-(2,2,2-trifluoroethyl)-6H-isochromeno[3,4-c]pyridin-2-amine]
